According to PubChem BioAssay (NCI):
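Cells were grown in 96-well plates and exposed to each compound for 48 hours at five concentrations; endpoints were interpolated linearly between bracketing concentrations, or set to the highest concentration if not reached. TGI denotes the concentration required for complete inhibition of growth.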

Assays:
Assay in all cases: growth of human tumour cells (NCI), 48 h
786-0 renal = test system: 786-0 renal
A549 NSCLC = test system: A549 NSCLC
ACHN renal = test system: ACHN renal
CAKI-1 renal = test system: CAKI-1 renal
CCRF-CEM leukemia = test system: CCRF-CEM leukemia
COLO 205 colon = test system: COLO 205 colon
DLD-1 colon = test system: DLD-1 colon
DMS 114 small cell lung = test system: DMS 114 small cell lung
DMS 273 small cell lung = test system: DMS 273 small cell lung
EKVX NSCLC = test system: EKVX NSCLC
HCC-2998 colon = test system: HCC-2998 colon
HCT-15 colon = test system: HCT-15 colon
HL-60(TB) leukemia = test system: HL-60(TB) leukemia
HOP-18 NSCLC = test system: HOP-18 NSCLC
HOP-62 NSCLC = test system: HOP-62 NSCLC
HOP-92 NSCLC = test system: HOP-92 NSCLC
HT29 colon = test system: HT29 colon
IGROV1 ovarian = test system: IGROV1 ovarian
K-562 leukemia = test system: K-562 leukemia
KM12 colon = test system: KM12 colon
KM20L2 colon = test system: KM20L2 colon
LOX IMVI melanoma = test system: LOX IMVI melanoma
LXFL 529 NSCLC = test system: LXFL 529 NSCLC
M14 melanoma = test system: M14 melanoma
M19-MEL melanoma = test system: M19-MEL melanoma
MALME-3M melanoma = test system: MALME-3M melanoma
MOLT-4 leukemia = test system: MOLT-4 leukemia
NCI-H23 lung = test system: NCI-H23 lung
NCI-H460 lung = test system: NCI-H460 lung
NCI-H522 lung = test system: NCI-H522 lung
OVCAR-3 ovarian = test system: OVCAR-3 ovarian
OVCAR-4 ovarian = test system: OVCAR-4 ovarian
OVCAR-5 ovarian = test system: OVCAR-5 ovarian
OVCAR-8 ovarian = test system: OVCAR-8 ovarian
RPMI-8226 leukemia = test system: RPMI-8226 leukemia
RXF 393 renal = test system: RXF 393 renal
RXF-631 renal = test system: RXF-631 renal
SF-268 CNS = test system: SF-268 CNS
SF-295 CNS = test system: SF-295 CNS
SF-539 CNS = test system: SF-539 CNS
SK-MEL-2 melanoma = test system: SK-MEL-2 melanoma
SK-MEL-28 melanoma = test system: SK-MEL-28 melanoma
SK-MEL-5 melanoma = test system: SK-MEL-5 melanoma
SK-OV-3 ovarian = test system: SK-OV-3 ovarian
SN12C renal = test system: SN12C renal
SNB-19 CNS = test system: SNB-19 CNS
SNB-75 CNS = test system: SNB-75 CNS
SW-620 colon = test system: SW-620 colon
TK-10 renal = test system: TK-10 renal
U251 CNS = test system: U251 CNS
UACC-257 melanoma = test system: UACC-257 melanoma
UACC-62 melanoma = test system: UACC-62 melanoma
UO-31 renal = test system: UO-31 renal
A498 renal = test system: A498 renal
HCT-116 colon = test system: HCT-116 colon
NCI-H226 lung = test system: NCI-H226 lung
SNB-78 CNS = test system: SNB-78 CNS
SR leukemia = test system: SR leukemia
XF 498 CNS = test system: XF 498 CNS

In the case of `O=C1C2C(C(=O)N1c1ccccc1)C1(c3ccccc3)OC2(c2ccccc2)c2ccccc21` (stereo not drawn), the TGI (786-0 renal) is reported as over 100 µM, the TGI (A549 NSCLC) is reported as over 100 µM and the TGI (ACHN renal) is reported as over 100 µM. The TGI (CAKI-1 renal) was over 100 µM, the TGI (CCRF-CEM leukemia) was over 100 µM and the TGI (COLO 205 colon) was over 100 µM. It also gave a TGI (DLD-1 colon) of over 100 µM, a TGI (DMS 114 small cell lung) of over 100 µM and a TGI (DMS 273 small cell lung) of over 100 µM. For the same molecule, the TGI (EKVX NSCLC) was over 100 µM, the TGI (HCC-2998 colon) was over 100 µM and the TGI (HCT-15 colon) was over 100 µM. The TGI (HL-60(TB) leukemia) was over 100 µM, the TGI (HOP-18 NSCLC) was over 100 µM and the TGI (HOP-62 NSCLC) was over 100 µM. For the same molecule, the TGI (HOP-92 NSCLC) was over 100 µM, the TGI (HT29 colon) was over 100 µM and the TGI (IGROV1 ovarian) was over 100 µM. The TGI (K-562 leukemia) was over 100 µM, the TGI (KM12 colon) was over 100 µM and the TGI (KM20L2 colon) was over 100 µM. For the same molecule, the TGI (LOX IMVI melanoma) was over 100 µM, the TGI (LXFL 529 NSCLC) was over 100 µM and the TGI (M14 melanoma) was over 100 µM. For the same molecule, the TGI (M19-MEL melanoma) was over 100 µM, the TGI (MALME-3M melanoma) was over 100 µM and the TGI (MOLT-4 leukemia) was over 100 µM. The TGI (NCI-H23 lung) was over 100 µM, the TGI (NCI-H460 lung) was over 100 µM and the TGI (NCI-H522 lung) was over 100 µM. The TGI (OVCAR-3 ovarian) was over 100 µM, the TGI (OVCAR-4 ovarian) was over 100 µM and the TGI (OVCAR-5 ovarian) was over 100 µM. The TGI (OVCAR-8 ovarian) was over 100 µM, the TGI (RPMI-8226 leukemia) was over 100 µM and the TGI (RXF 393 renal) was over 100 µM. It also gave a TGI (RXF-631 renal) of over 100 µM, a TGI (SF-268 CNS) of over 100 µM and a TGI (SF-295 CNS) of over 100 µM. It also gave a TGI (SF-539 CNS) of over 100 µM, a TGI (SK-MEL-2 melanoma) of over 100 µM and a TGI (SK-MEL-28 melanoma) of over 100 µM. The TGI (SK-MEL-5 melanoma) was over 100 µM, the TGI (SK-OV-3 ovarian) was over 100 µM and the TGI (SN12C renal) was over 100 µM. For the same molecule, the TGI (SNB-19 CNS) was over 100 µM, the TGI (SNB-75 CNS) was over 100 µM and the TGI (SW-620 colon) was over 100 µM. The TGI (TK-10 renal) was over 100 µM, the TGI (U251 CNS) was over 100 µM and the TGI (UACC-257 melanoma) was over 100 µM. It also gave a TGI (UACC-62 melanoma) of over 100 µM and a TGI (UO-31 renal) of over 100 µM.
`Oc1ccc2c3c1OC1C(=NN=C4CCC5(O)C6Cc7ccc(O)c8c7C5(CCN6CC5CC5)C4O8)CCC4(O)C(C2)N(CC2CC2)CCC314` (stereo not drawn) showed a TGI (786-0 renal) of 66.2 µM, a TGI (A498 renal) of over 67.7 µM and a TGI (A549 NSCLC) of 42.3 µM. For the same molecule, the TGI (ACHN renal) was over 100 µM, the TGI (CAKI-1 renal) was over 100 µM and the TGI (CCRF-CEM leukemia) was over 68.1 µM. For the same molecule, the TGI (COLO 205 colon) was 38.4 µM, the TGI (DLD-1 colon) was over 100 µM and the TGI (DMS 114 small cell lung) was 44.6 µM. For the same molecule, the TGI (DMS 273 small cell lung) was 63.9 µM, the TGI (EKVX NSCLC) was over 85.2 µM and the TGI (HCC-2998 colon) was 52.7 µM. It also gave a TGI (HCT-116 colon) of 30.1 µM, a TGI (HCT-15 colon) of over 100 µM and a TGI (HL-60(TB) leukemia) of 39.8 µM. The TGI (HOP-18 NSCLC) was over 100 µM, the TGI (HOP-62 NSCLC) was over 65.7 µM and the TGI (HOP-92 NSCLC) was 53.4 µM. It also gave a TGI (HT29 colon) of 32.8 µM, a TGI (IGROV1 ovarian) of over 100 µM and a TGI (K-562 leukemia) of 48.2 µM. The TGI (KM12 colon) was 40.2 µM, the TGI (KM20L2 colon) was 41.7 µM and the TGI (LOX IMVI melanoma) was 39.1 µM. It also gave a TGI (LXFL 529 NSCLC) of 43.5 µM, a TGI (M14 melanoma) of 33.4 µM and a TGI (M19-MEL melanoma) of 40.9 µM. For the same molecule, the TGI (MALME-3M melanoma) was 34.5 µM, the TGI (MOLT-4 leukemia) was over 74 µM and the TGI (NCI-H226 lung) was over 100 µM. It also gave a TGI (NCI-H23 lung) of 99 µM, a TGI (NCI-H460 lung) of 46.1 µM and a TGI (NCI-H522 lung) of 57.4 µM. It also gave a TGI (OVCAR-3 ovarian) of 34.6 µM, a TGI (OVCAR-4 ovarian) of over 66 µM and a TGI (OVCAR-5 ovarian) of over 100 µM. For the same molecule, the TGI (OVCAR-8 ovarian) was 84 µM, the TGI (RPMI-8226 leukemia) was 88.7 µM and the TGI (RXF 393 renal) was over 100 µM. It also gave a TGI (SF-268 CNS) of over 83.3 µM, a TGI (SF-295 CNS) of 32.6 µM and a TGI (SF-539 CNS) of over 55.5 µM. For the same molecule, the TGI (SK-MEL-2 melanoma) was 18.9 µM, the TGI (SK-MEL-28 melanoma) was 49.4 µM and the TGI (SK-MEL-5 melanoma) was 34.8 µM. The TGI (SK-OV-3 ovarian) was over 75.2 µM, the TGI (SN12C renal) was over 59.9 µM and the TGI (SNB-19 CNS) was over 100 µM. It also gave a TGI (SNB-75 CNS) of over 71.8 µM, a TGI (SNB-78 CNS) of over 100 µM and a TGI (SR leukemia) of 80.4 µM. For the same molecule, the TGI (SW-620 colon) was 41.6 µM, the TGI (TK-10 renal) was over 70.2 µM and the TGI (U251 CNS) was 32.1 µM. The TGI (UACC-257 melanoma) was 43.1 µM, the TGI (UACC-62 melanoma) was 41.2 µM and the TGI (UO-31 renal) was over 100 µM. The TGI (XF 498 CNS) was 34.3 µM.
`Cc1cc(NS(=O)(=O)c2ccc(NC(=O)c3cccc4cc5ccccc5nc34)cc2)no1` showed a TGI (786-0 renal) of 32.6 µM, a TGI (A498 renal) of 37 µM and a TGI (A549 NSCLC) of 56.2 µM. For the same molecule, the TGI (ACHN renal) was 29.8 µM, the TGI (CAKI-1 renal) was 46.7 µM and the TGI (CCRF-CEM leukemia) was 54.3 µM. For the same molecule, the TGI (COLO 205 colon) was 53.4 µM, the TGI (DLD-1 colon) was 52.1 µM and the TGI (DMS 114 small cell lung) was 49.2 µM. It also gave a TGI (DMS 273 small cell lung) of 32.4 µM, a TGI (EKVX NSCLC) of 90.9 µM and a TGI (HCT-116 colon) of 19.6 µM. It also gave a TGI (HCT-15 colon) of 35.7 µM, a TGI (HOP-62 NSCLC) of 66.4 µM and a TGI (HT29 colon) of over 100 µM. For the same molecule, the TGI (IGROV1 ovarian) was 64.8 µM, the TGI (K-562 leukemia) was 50.6 µM and the TGI (KM12 colon) was 40.7 µM. The TGI (KM20L2 colon) was 75.1 µM, the TGI (LXFL 529 NSCLC) was 31.5 µM and the TGI (M14 melanoma) was 43 µM. For the same molecule, the TGI (M19-MEL melanoma) was 74.3 µM, the TGI (MALME-3M melanoma) was 31.9 µM and the TGI (MOLT-4 leukemia) was 48.4 µM. For the same molecule, the TGI (NCI-H23 lung) was 39.3 µM, the TGI (NCI-H460 lung) was 72.2 µM and the TGI (NCI-H522 lung) was 33.8 µM. It also gave a TGI (OVCAR-3 ovarian) of 45.5 µM, a TGI (OVCAR-4 ovarian) of 39.7 µM and a TGI (OVCAR-5 ovarian) of 57.3 µM. For the same molecule, the TGI (OVCAR-8 ovarian) was 45.8 µM, the TGI (RPMI-8226 leukemia) was 55.9 µM and the TGI (RXF 393 renal) was 29.1 µM. It also gave a TGI (RXF-631 renal) of 37.5 µM, a TGI (SF-268 CNS) of over 100 µM and a TGI (SF-295 CNS) of 59.1 µM. For the same molecule, the TGI (SF-539 CNS) was 33.3 µM, the TGI (SK-MEL-2 melanoma) was 41.4 µM and the TGI (SK-MEL-28 melanoma) was 33.1 µM. The TGI (SK-MEL-5 melanoma) was 30.3 µM, the TGI (SK-OV-3 ovarian) was over 100 µM and the TGI (SN12C renal) was 43.3 µM. It also gave a TGI (SNB-19 CNS) of 19.3 µM, a TGI (SNB-75 CNS) of 41.9 µM and a TGI (SNB-78 CNS) of 69.6 µM. It also gave a TGI (SW-620 colon) of 70.2 µM, a TGI (TK-10 renal) of 89.3 µM and a TGI (U251 CNS) of 75.5 µM. It also gave a TGI (UACC-257 melanoma) of 87.6 µM, a TGI (UACC-62 melanoma) of 48.5 µM and a TGI (UO-31 renal) of 19.2 µM. For the same molecule, the TGI (XF 498 CNS) was 33.6 µM.
